These results are taken from ChEMBL document CHEMBL2146453, “Synthesis of novel ursolic acid heterocyclic derivatives with improved abilities of antiproliferation and induction of p53, p21waf1 and NOXA in pancreatic cancer cells” (Bioorg Med Chem, 2012).

What is called IC50 is the midpoint of a concentration-inhibition curve.

Holding throughout (format): functional, cell-based
For one test, the system named is ASPC1. In words: Cytotoxicity against human AsPC1 cells after 72 hrs by MTT assay. The note with it: ASPC1, 72 h.
In another test the test system is A549. As to the kind of experiment: Cytotoxicity against human A549 cells after 72 hrs by MTT assay. The note with it: A549, 72 h.
Another test concerns MIA PaCa-2. In words: Cytotoxicity against human MIAPaCa2 cells after 72 hrs by MTT assay. The note with it: MIA PaCa-2, 72 h. On the technique in general: Tetrazolium dyes change colour on reduction, which living cells bring about.
A further test relates to HepG2. As to the kind of experiment: Cytotoxicity against human HepG2 cells after 72 hrs by MTT assay. The note with it: HepG2, 72 h.
The test system of the next test is PC-3. In words: Cytotoxicity against human PC3 cells after 72 hrs by MTT assay. Particulars: PC-3, 72 h.
A further test deals with MCF7. In words: Cytotoxicity against human MCF7 cells after 72 hrs by MTT assay. Particulars: MCF7, 72 h.
For the next test, the system named is PANC-1. In words: Cytotoxicity against human PANC1 cells after 72 hrs by MTT assay. The note with it: PANC-1, 72 h.

For the compound `C[C@H]1[C@H](C)CC[C@]2(C(=O)n3cnnc3)CC[C@]3(C)C(=CC(=O)[C@@H]4[C@@]5(C)CCC(=O)C(C)(C)[C@@H]5CC[C@]43C)[C@H]12`, the IC50 in the test with ASPC1 amounted to 9.9 µM.
On the same count and under the same terms, the value for `C[C@H]1[C@H](C)CC[C@]2(C(=O)n3ccnc3)CC[C@]3(C)C(=CC(=O)[C@@H]4[C@@]5(C)CCC(=O)C(C)(C)[C@@H]5CC[C@]43C)[C@H]12` was 11.7 µM; that for `Cc1nccn1/C=C1/C[C@]2(C)[C@H]3CC=C4[C@@H]5[C@@H](C)[C@H](C)CC[C@]5(C(=O)n5ccnc5C)CC[C@@]4(C)[C@]3(C)CC[C@H]2C(C)(C)C1=O` was 11.3 µM.
Still for that read-out and setting: the same measure for `CC(=O)O[C@H]1CC[C@]2(C)[C@H]3CC=C4[C@@H]5[C@@H](C)[C@H](C)CC[C@]5(C(=O)O)CC[C@@]4(C)[C@]3(C)CC[C@H]2C1(C)C` [O-ACETYLURSOLIC ACID]: 71 µM; for `COC(=O)[C@]12CC[C@@H](C)[C@H](C)[C@H]1C1=CC[C@@H]3[C@@]4(C)CC[C@H](O)C(C)(C)[C@@H]4CC[C@@]3(C)[C@]1(C)CC2` [METHYL URSOLATE]: 17.7 µM; for `CC(=O)O[C@H]1CC[C@]2(C)[C@H]3CC=C4[C@@H]5[C@@H](C)[C@H](C)CC[C@]5(C(=O)n5ccnc5C)CC[C@@]4(C)[C@]3(C)CC[C@H]2C1(C)C`: 20.2 µM.
On to `COC(=O)[C@]12CC[C@@H](C)[C@H](C)[C@H]1C1=CC(=O)[C@@H]3[C@@]4(C)C/C(=C/n5ccnc5C)C(=O)C(C)(C)[C@@H]4CC[C@@]3(C)[C@]1(C)CC2`, for which the IC50 in the test with A549 is 18.7 µM; in the test with MIA PaCa-2, 8.3 µM; in the test on HepG2 it was 8.5 µM; with PC-3, 5.7 µM; in the test on ASPC1 it was 2.1 µM; in the test on MCF7 it was 3.5 µM. Also, half-maximal inhibition with PANC-1 (IC50) required 14.4 µM.
The compound `C[C@H]1[C@H](C)CC[C@]2(C(=O)O)CC[C@]3(C)C(=CC[C@@H]4[C@@]5(C)CCC(=O)C(C)(C)[C@@H]5CC[C@]43C)[C@H]12` [URSONIC ACID] returned an IC50 in the test on ASPC1 of 24.5 µM.
With `C[C@H]1[C@H](C)CC[C@]2(C(=O)O)CC[C@]3(C)C(=CC[C@@H]4[C@@]5(C)CC[C@H](O)C(C)(C)[C@@H]5CC[C@]43C)[C@H]12` [URSOLIC ACID], the IC50 in the test on A549 stood at 11.4 µM; with MIA PaCa-2, 10.4 µM; in the test on HepG2 it was 15 µM; in the test on PC-3 it was 20.8 µM; in the test with ASPC1 it was 12.6 µM; in the test with MCF7, 12.3 µM. The same compound yielded an IC50 with PANC-1 of 14.9 µM.
`CC(=O)O[C@H]1CC[C@]2(C)[C@H]3C(=O)C=C4[C@@H]5[C@@H](C)[C@H](C)CC[C@]5(C(=O)n5ccnc5)CC[C@@]4(C)[C@]3(C)CC[C@H]2C1(C)C` registered an IC50 in the test on ASPC1 of 13.9 µM.
Regarding `COC(=O)[C@]12CC[C@@H](C)[C@H](C)[C@H]1C1=CC[C@@H]3[C@@]4(C)C/C(=C/O)C(=O)C(C)(C)[C@@H]4CC[C@@]3(C)[C@]1(C)CC2`, the IC50 with ASPC1 worked out at 7.2 µM.
`CC(=O)O[C@H]1CC[C@]2(C)[C@H]3CC=C4[C@@H]5[C@@H](C)[C@H](C)CC[C@]5(C(=O)n5cnnc5)CC[C@@]4(C)[C@]3(C)CC[C@H]2C1(C)C` registered an IC50 with ASPC1 of 23.3 µM.
Same read-out and setting: the same measure for `C[C@H]1[C@H](C)CC[C@]2(C(=O)O)CC[C@]3(C)C(=CC(=O)[C@@H]4[C@@]5(C)CCC(=O)C(C)(C)[C@@H]5CC[C@]43C)[C@H]12`: 54.9 µM; for `CC(=O)O[C@H]1CC[C@]2(C)[C@H]3C(=O)C=C4[C@@H]5[C@@H](C)[C@H](C)CC[C@]5(C(=O)n5cnnc5)CC[C@@]4(C)[C@]3(C)CC[C@H]2C1(C)C`: 10.2 µM; for `COC(=O)[C@]12CC[C@@H](C)[C@H](C)[C@H]1C1=CC(=O)[C@@H]3[C@@]4(C)C/C(=C/O)C(=O)C(C)(C)[C@@H]4CC[C@@]3(C)[C@]1(C)CC2`: 9 µM.
For the compound `COC(=O)[C@]12CC[C@@H](C)[C@H](C)[C@H]1C1=CC[C@@H]3[C@@]4(C)C/C(=C/n5ccnc5)C(=O)C(C)(C)[C@@H]4CC[C@@]3(C)[C@]1(C)CC2`, the IC50 was 5.6 µM in the test with A549; 7.3 µM in the test on MIA PaCa-2; 2 µM with HepG2; 6.8 µM with PC-3; 5.8 µM in the test on ASPC1; 5.3 µM in the test with MCF7. Further, it took 5.1 µM to reach half-maximal inhibition with PANC-1 (IC50).
For `CC(=O)O[C@H]1CC[C@]2(C)[C@H]3C(=O)C=C4[C@@H]5[C@@H](C)[C@H](C)CC[C@]5(C(=O)O)CC[C@@]4(C)[C@]3(C)CC[C@H]2C1(C)C` [11-OXOURSOLIC ACID ACETATE], 33.5 µM corresponded to half-maximal inhibition in the test on ASPC1 (IC50).
On the same count and under the same terms, the value for `C[C@H]1[C@H](C)CC[C@]2(C(=O)n3ccnc3)CC[C@]3(C)C(=CC[C@@H]4[C@@]5(C)C/C(=C/n6ccnc6)C(=O)C(C)(C)[C@@H]5CC[C@]43C)[C@H]12` was 5.1 µM; that for `C[C@H]1[C@H](C)CC[C@]2(C(=O)n3cnnc3)CC[C@]3(C)C(=CC[C@@H]4[C@@]5(C)CCC(=O)C(C)(C)[C@@H]5CC[C@]43C)[C@H]12` was 19.2 µM.
Compound `C[C@H]1[C@H](C)CC[C@]2(C(=O)n3cnnc3)CC[C@]3(C)C(=CC[C@@H]4[C@@]5(C)C/C(=C/n6cnnc6)C(=O)C(C)(C)[C@@H]5CC[C@]43C)[C@H]12` displayed an IC50 in the test with ASPC1 of 3.9 µM.
On the same count and under the same terms, the value for `Cc1nccn1C(=O)[C@]12CC[C@@H](C)[C@H](C)[C@H]1C1=CC[C@@H]3[C@@]4(C)CCC(=O)C(C)(C)[C@@H]4CC[C@@]3(C)[C@]1(C)CC2` was 19.6 µM.
In the case of `COC(=O)[C@]12CC[C@@H](C)[C@H](C)[C@H]1C1=CC(=O)[C@@H]3[C@@]4(C)C/C(=C/n5cnnc5)C(=O)C(C)(C)[C@@H]4CC[C@@]3(C)[C@]1(C)CC2`, the IC50 in the test with A549 was found to be 12.9 µM; in the test on MIA PaCa-2 it was 7.8 µM; in the test with HepG2 it was 7.9 µM; in the test with PC-3, 9.5 µM; in the test on ASPC1 it was 8.1 µM; in the test on MCF7, 12.5 µM. In the test on PANC-1, this compound yielded an IC50 of 12.1 µM.
Regarding `COC(=O)[C@]12CC[C@@H](C)[C@H](C)[C@H]1C1=CC[C@@H]3[C@@]4(C)C/C(=C/n5ccnc5C)C(=O)C(C)(C)[C@@H]4CC[C@@]3(C)[C@]1(C)CC2`, the IC50 in the test on A549 stood at 5.3 µM; with MIA PaCa-2, 5.6 µM; with HepG2 it was 4 µM; with PC-3 it was 3.5 µM; in the test with ASPC1 it was 2.1 µM; in the test with MCF7, 2.2 µM. This compound also displayed an IC50 in the test on PANC-1 of 5.6 µM.
Compound `C[C@H]1[C@H](C)CC[C@]2(C(=O)O)CC[C@]3(C)C(=CC[C@@H]4[C@@]5(C)C/C(=C/O)C(=O)C(C)(C)[C@@H]5CC[C@]43C)[C@H]12` registered an IC50 with ASPC1 of 13.4 µM.
`C[C@H]1[C@H](C)CC[C@]2(C(=O)n3ccnc3)CC[C@]3(C)C(=CC[C@@H]4[C@@]5(C)CCC(=O)C(C)(C)[C@@H]5CC[C@]43C)[C@H]12` showed an IC50 in the test on ASPC1 of 15.2 µM.
On the same count and under the same terms, the value for `CC(=O)O[C@H]1CC[C@]2(C)[C@H]3C(=O)C=C4[C@@H]5[C@@H](C)[C@H](C)CC[C@]5(C(=O)n5ccnc5C)CC[C@@]4(C)[C@]3(C)CC[C@H]2C1(C)C` was 15.3 µM.
As for `COC(=O)[C@]12CC[C@@H](C)[C@H](C)[C@H]1C1=CC(=O)[C@@H]3[C@@]4(C)C/C(=C/n5ccnc5)C(=O)C(C)(C)[C@@H]4CC[C@@]3(C)[C@]1(C)CC2`, the IC50 in the test on A549 amounted to 12.2 µM; in the test with MIA PaCa-2, 24.3 µM; in the test with HepG2 it was 27.6 µM; in the test with PC-3 it was 12.9 µM; with ASPC1 it was 2.3 µM; with MCF7 it was 9.4 µM. This compound also registered an IC50 in the test with PANC-1 of 18.2 µM.
With `Cc1nccn1C(=O)[C@]12CC[C@@H](C)[C@H](C)[C@H]1C1=CC(=O)[C@@H]3[C@@]4(C)CCC(=O)C(C)(C)[C@@H]4CC[C@@]3(C)[C@]1(C)CC2`, 5.1 µM corresponded to half-maximal inhibition in the test with ASPC1 (IC50).
Regarding `CC(=O)O[C@H]1CC[C@]2(C)[C@H]3CC=C4[C@@H]5[C@@H](C)[C@H](C)CC[C@]5(C(=O)n5ccnc5)CC[C@@]4(C)[C@]3(C)CC[C@H]2C1(C)C`, the IC50 in the test on ASPC1 is 15.2 µM.
